Laboratory results reported in patent US9687477B2 (priority 2011, dated 2017).
Like-named read-outs stand apart in the source and are kept apart here.

Tests used:
[1] = test system: influenza virus; assay: Survival and weight loss of influenza virus-infected mice treated with SK inhibitor; assay type: in vivo, C57BL/6 mice
Protocol: FIG. 8 (Panels A-B) set forth data illustrating reduced mortality of influenza virus-infected mice by SK inhibitor treatment. (A) Wild-type C57BL/6 mice (n=5/group) were infected in vivo with influenza virus at 10^5 plaque forming unit (PFU) intra-nasally (i.n.) and injected with vehicle (control, CTR) or DMS {0.1 mg/kg (mpk)} and their lifespan was monitored. (B) Mice were infected with 5×10^4 PFU of influenza virus and then treated with vehicle (control, CTR), DMS (0.003 mpk) or SKI-II (0.012 mpk) via intranasal inoculation. Survival of the infected mice was monitored daily for 14 days.
Refer to FIGS. 8A and 8B. Wild-type C57BL/6 mice (n=5/group) were infected in vivo with influenza virus at 10^5 PFU intra-nasally (i.n.) and injected with vehicle (CTR) or DMS {0.1 mg/kg (mpk)} and their lifespan was monitored.

[2] = test system: ERK signaling pathway; assay: Influenza virus-induced activation of ERK MAP kinase signal in MDCK cells (Western blot); assay type: cell-based, canine; conditions: 3 MOI, 5 μM
Protocol: FIG. 12 (Panels A-C) set forth data illustrating reduced activation of ERK MAP kinase signal by SK inhibitor treatment upon influenza virus infection. (A). MDCK cells were treated with VEH or DMS (5 μM) and infected with influenza virus at 3 MOI. Cell lysates were obtained at the indicated time points and the expression of ERK MAP kinase signaling components were assessed by Western blot analysis. Relative expression of pERK and p90RSK is shown in panels B and C respectively (dotted line, VEH treated; solid line, DMS treated).
(§1) Specific antibodies against actin, influenza viral protein NP, NS1, NS2, M1, M2, Bax, Bcl-2, PARP, STAT1, pSTAT1, STAT2, pSTAT2, ERK, pERK, p38, p-p38, Akt, pAkt, JNK, pJNK, RanBP3, pRanBP3, p-p90RSK, and FLAG for SPL and SK1 were purchased from Cell Signaling Technology, Abcam, Upstate, or Santa Cruz Biotechnology. Total proteins were extracted by a RIPA buffer supplemented with inhibitors blocking proteases and phosphatases, and then normalized by using a Bradford assay. The protein samples (20 μg each) were run on a 12% SDS-PAGE gel and transferred to a PROTRAN-NC (Whatman). Membrane-bound antibodies were detected by enhanced chemiluminescence (Pierce). All of the presented data were repeated with independent experimental settings, at least twice.

[3] = test system: Influenza A/WSN/33 virus (H1N1); assay: microbe, parasite or virus in culture; assay type: cell-based; conditions: read-out: EC50 (50% efficacy concentration that blocks virus production)
[4] = test system: RanBP3; assay: Influenza virus-induced phosphorylation of RanBP3 in MDCK cells (Western blot); assay type: cell-based, canine; conditions: 5 MOI, 5 μM
Protocol: FIG. 11 (Panels A-E) set forth data illustrating critical role of RanBP3 in influenza virus replication and RanBP3 regulation by SK inhibitor. (A-B) MDCK cells were infected with influenza virus at 5 MOI and treated with VEH or DMS (5 μM). Cell lysates were obtained at the indicated time points and the expression of pRanBP3 was assessed by Western blot analysis. Relative expression of pRanBP3 is shown in panel B. (C-E) HEK293 cells were transfected with control siRNA (siCTR) or siRNA targeting RanBP3 (siRanBP3). Western blotting was performed to detect RanBP3 and pRanBP3 (C). Cells were transfected with siRNA and then infected with influenza virus at 0.001 MOI. Virus titers were determined by using a plaque assay (D). Cells were transfected with siRNA and then infected with influenza virus at 1 MOI for 12 hrs. Immunocytochemistry followed by confocal microscopic analysis was performed to detect influenza viral NP (E).
(§2) Specific antibodies against actin, influenza viral protein NP, NS1, NS2, M1, M2, Bax, Bcl-2, PARP, STAT1, pSTAT1, STAT2, pSTAT2, ERK, pERK, p38, p-p38, Akt, pAkt, JNK, pJNK, RanBP3, pRanBP3, p-p90RSK, and FLAG for SPL and SK1 were purchased from Cell Signaling Technology, Abcam, Upstate, or Santa Cruz Biotechnology. […] Membrane-bound antibodies were detected by enhanced chemiluminescence (Pierce). […]

[5] = test system: Measles virus (Edmonston strain); assay type: cell-based
[6] = test system: influenza virus; conditions: cited from earlier work
[7] = test system: influenza virus; assay: Viral NP in influenza virus-infected HEK-cells treated with sphingolipids (Western blot); assay type: cell-based, Influenza A/WSN/33 virus (H1N1); conditions: 1 MOI, 1 μM, 2 dpi
Protocol: FIG. 6 (Panels A-D) set forth data illustrating the enhanced susceptibility of SK1-cells to influenza virus infection. (A) HEK-cells (open triangle) or SK1-cells (filled square) were infected with influenza virus at 0.1 MOI. At 12, 18 or 48 hpi, virus titers were determined by plaque assay. n=3 separate virus-infected cells per group at each time point; Mean±SEM. (B) Western blot analysis was conducted at 2 dpi to detect viral NP and actin. (C) Cell lysates were used for Western blot analysis to detect STAT1, pSTAT1 and actin. (D) HEK-cells were infected with influenza virus at 1 MOI and treated with solvent controls, FTY720 (1 μM), D-erythro-sphingosine (1 μM) or S1P (1 μM). At 2 dpi, total proteins were extracted to detect viral NP and actin by Western blot analysis.
as §1
FTY720, D-erythro-sphingosine, and S1P were purchased from Cayman Chemicals. HEK-cells were infected with influenza virus and simultaneously treated with FTY720 (1 μM), D-erythro-sphingosine (1 μM), or its solvent (1% DMSO). Similarly, virus-infected cells were treated with S1P (1 μM) or its solvent (3 mM NaOH). These experiments were repeated two more times, with similar results.

[8] = test system: influenza virus; assay: JAK inhibitor / STAT1 inhibitor assay: viral NP in infected HEK- and SPL-cells; assay type: cell-based, Influenza A/WSN/33 virus (H1N1); conditions: 1 MOI, treated at 2 hpi, 10 μM, after 2 days
Source text: FIG. 4 (Panels A-E) set forth data illustrating the analyses for the activation of JAK/STAT following influenza virus infection of SPL-cells. HEK-cells or SPL-cells were uninfected or infected with influenza virus at 1 MOI. (A) At 1 dpi, cell lysates were used for Western blot analysis to detect STAT1, pSTAT1, STAT2, pSTAT2 and actin. (B) At 0, 12 or 18 hpi, whole proteins were extracted and then used for Western blot analysis to detect STAT1, pSTAT1 and actin. (C) HEK- or SPL-cells were pre-treated with fludarabine (1 μM) blocking STAT1 expression, and at 2 dpi, the expression of viral NP and actin was analyzed. (D) HEK-cells (filled bars) and SPL-cells (open bars) were uninfected (CTR) or infected with influenza virus at 1 MOI (left panel) or 10 MOI (right panel). Reverse transcription followed by quantitative real-time PCR was performed to detect the relative mRNA level of IFN-β. […] After 2 days, the level of viral NP and actin was assessed by Western blot analysis.
as §2

Compound: CCCCCCCCCCCCC/C=C/[C@@H](O)[C@H](CO)N(C)C [DMS, D-erythro-N,N-dimethylsphingosine]
- weight lost by treated infected mice ([1]; 10^5 PFU i.n., single dose 0.1 mpk, at 9-10 dpi): ~20%
- mortality rate of the infected mice ([1]; mouse, in vivo, 0.012 mg/kg): decreased the mortality rate of the infected mice
- protection from influenza virus-induced death (lifespan) ([1]; mouse, in vivo, 0.1 mg/kg): effectively protected them from influenza virus-induced death
- weight loss of the infected mice (morbidity experiment) ([1]; n=5/group, −15% in CTR): −7%
- influenza virus-induced activation (phosphorylation) of ERK [2]: suppress influenza virus-induced activation
- influenza virus-induced activation (phosphorylation) of p90RSK [2]: suppress influenza virus-induced activation
- EC50 [3]: 4.1 µM
- influenza virus-induced phosphorylation of RanBP3 [4]: blocked influenza virus-induced phosphorylation of RanBP3

Compound: Oc1ccc(Nc2nc(-c3ccc(Cl)cc3)cs2)cc1 [SKI-II, 4-[4-(4-Chloro-phenyl)-thiazol-2-ylamino]-phenol]
- viability of mice infected with influenza virus ([1]; single dose 0.012 mpk, 5×10^4 PFU, intranasal, 14 days): increased viability of mice infected with influenza virus
- expression of measles viral proteins [5]: inhibited
- production of measles virus (viral titers, plaque assay) [5]: interfered with the production of measles virus
- EC50 ([3]; Influenza A virus, MDCK): 2.5 µM

Compound: CCCCCCCOc1ccc(CC[C@@](C)(N)CO)cc1 [AAL-R]
- propagation of influenza virus ([6]; reference 18): did not significantly alter the propagation of influenza virus
- influenza virus-induced immune pathology ([6]; references 17, 18): alleviate influenza virus-induced immune pathology

Compound: CCCCCCCCCCCCC/C=C/[C@@H](O)[C@@H](N)CO [D-erythro-sphingosine]
- synthesis of influenza viral NP [7]: failed to enhance the synthesis of influenza viral NP

Compound: CCCCCCCCc1ccc(CCC(N)(CO)CO)cc1 [FTY720]
- synthesis of influenza viral NP [7]: failed to enhance the synthesis of influenza viral NP

Compound: JAK inhibitor I
- NP expression in HEK-cells ([8]; HEK-cells): only a little increase of NP expression
- expression level of viral NP in SPL-cells ([8]; SPL-cells): strongly elevated the expression level of viral NP

Compound: CCCCCCCCCCCCC/C=C/[C@@H](O)[C@@H](N)COP(=O)(O)O [S1P, sphingosine-1-phosphate]
- synthesis of influenza viral NP [7]: failed to enhance the synthesis of influenza viral NP
